pKi: −log10 of the molar value.
Tests used:
glucocorticoid receptor = molecular target: T1, glucocorticoid receptor (Homo sapiens, UniProt P04150); assay: Glucocorticoid Receptor Binding Assay ([3H]-dexamethasone, A549 cell extract); details: [3H]-dexamethasone binding, read-out: GR Ki
T1 construct: containing 50-200 ug of A549 cell extract and 1.86 nM [^3H]-dexamethasone; host or cells: A549 human lung epithelial cells (sonicated cell extract)
T1 sequence (P04150 1-777): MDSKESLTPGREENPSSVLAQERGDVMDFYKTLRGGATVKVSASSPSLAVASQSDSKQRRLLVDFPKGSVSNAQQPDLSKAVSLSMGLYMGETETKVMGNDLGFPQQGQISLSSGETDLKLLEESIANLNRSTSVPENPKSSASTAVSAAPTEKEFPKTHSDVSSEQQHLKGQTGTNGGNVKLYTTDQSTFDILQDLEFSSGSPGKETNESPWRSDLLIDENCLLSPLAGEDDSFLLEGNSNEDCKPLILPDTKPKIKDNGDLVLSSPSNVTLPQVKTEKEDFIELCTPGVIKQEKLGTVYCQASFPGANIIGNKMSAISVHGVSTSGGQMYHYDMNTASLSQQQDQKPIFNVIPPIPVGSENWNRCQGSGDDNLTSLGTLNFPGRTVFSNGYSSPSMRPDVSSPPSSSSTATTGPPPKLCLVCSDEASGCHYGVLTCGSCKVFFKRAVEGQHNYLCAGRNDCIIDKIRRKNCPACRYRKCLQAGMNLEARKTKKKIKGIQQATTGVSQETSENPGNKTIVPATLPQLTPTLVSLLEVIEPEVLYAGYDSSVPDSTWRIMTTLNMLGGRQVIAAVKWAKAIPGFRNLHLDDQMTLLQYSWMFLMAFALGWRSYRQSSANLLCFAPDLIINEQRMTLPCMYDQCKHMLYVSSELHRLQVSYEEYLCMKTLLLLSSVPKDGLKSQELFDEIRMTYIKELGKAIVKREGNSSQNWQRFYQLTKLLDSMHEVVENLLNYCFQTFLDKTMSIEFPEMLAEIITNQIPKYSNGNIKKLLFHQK
In short: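 A549 cell extract (50–200 ug) incubated with 1.86 nM [3H]-dexamethasone and test compound for 16 h at 4 °C in Tris-HCl pH 7.2 buffer with glycerol and molybdate. Unbound radioligand removed by dextran-coated charcoal, then supernatant bound counts measured by scintillation.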

human MR = molecular target: T2, human MR (Homo sapiens, UniProt P08235); assay: Mineralocorticoid Receptor Binding Assay ([3H]-aldosterone); details: [3H]-aldosterone binding, human MR expressed in Sf9 cells; read-out: MR Ki
T2 construct: The full length human MR gene is cloned from a human kidney or human brain cDNA library; His tag from the pAcHLT vector (own knowledge); made in house; host or cells: Sf9 insect cells (baculovirus, pAcHLT transfer vector)
T2 sequence (P08235 1-984): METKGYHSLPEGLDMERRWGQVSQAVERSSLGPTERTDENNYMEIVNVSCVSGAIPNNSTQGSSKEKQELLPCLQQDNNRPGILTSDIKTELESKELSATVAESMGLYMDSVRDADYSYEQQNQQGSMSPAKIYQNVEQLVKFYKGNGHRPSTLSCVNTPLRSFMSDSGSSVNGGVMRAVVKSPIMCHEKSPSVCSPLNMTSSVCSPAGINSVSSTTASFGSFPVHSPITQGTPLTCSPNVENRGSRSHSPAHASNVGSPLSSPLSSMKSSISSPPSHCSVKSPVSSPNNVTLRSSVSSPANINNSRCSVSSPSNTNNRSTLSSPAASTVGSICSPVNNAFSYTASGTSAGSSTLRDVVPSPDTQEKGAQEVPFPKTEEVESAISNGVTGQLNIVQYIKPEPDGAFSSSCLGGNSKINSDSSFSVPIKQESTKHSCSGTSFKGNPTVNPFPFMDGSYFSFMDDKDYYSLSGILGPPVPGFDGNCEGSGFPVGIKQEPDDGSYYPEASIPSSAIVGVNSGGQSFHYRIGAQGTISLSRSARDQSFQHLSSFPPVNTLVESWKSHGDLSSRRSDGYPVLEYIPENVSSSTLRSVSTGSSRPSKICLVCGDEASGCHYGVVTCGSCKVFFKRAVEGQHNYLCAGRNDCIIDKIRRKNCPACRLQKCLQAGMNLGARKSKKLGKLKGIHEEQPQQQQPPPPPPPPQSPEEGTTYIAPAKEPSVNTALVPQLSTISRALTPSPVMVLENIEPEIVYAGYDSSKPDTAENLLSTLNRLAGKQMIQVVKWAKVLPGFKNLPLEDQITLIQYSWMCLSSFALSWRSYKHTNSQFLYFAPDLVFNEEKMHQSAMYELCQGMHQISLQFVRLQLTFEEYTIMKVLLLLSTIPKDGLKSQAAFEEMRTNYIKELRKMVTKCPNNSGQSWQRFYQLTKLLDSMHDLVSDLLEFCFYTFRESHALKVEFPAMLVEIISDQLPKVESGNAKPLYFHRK
In short: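 Lysate supernatant of Sf9 cells expressing full-length human MR (20-25 μg protein) was incubated with 0.5 nM [3H]-aldosterone and test compound in molybdate/Tris/phosphate/glycerol buffer, pH 7.5, ~16 h at 4 °C. Bound ligand was filtered and counted by scintillation; IC50 is the concentration halving [3H]-aldosterone binding.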

Row | pKi (glucocorticoid receptor) | pKi (human MR) | Compound
1 | > 6.30 | > 6.30 | O=C1Cc2ccc(C=C3c4ccccc4CCc4ccccc43)cc2N1 [Example 447]
2 | > 6.00 | > 6.30 | CN1Cc2ccccc2C(=Cc2cccc(NS(C)(=O)=O)c2)c2ccccc21 [Example 653]
3 | > 6.30 | > 6.00 | O=S(=O)(Nc1cccc(/C=C2\c3ccccc3CSc3ccccc32)c1)C1CC1 [Example 698]
4 | > 6.30 | > 6.30 | CCS(=O)(=O)Nc1ccc(C=C2c3ccccc3CCc3ccccc32)cc1 [Example 106, Ethanesulfonic acid [4-(10,11-dihydro-dibenzo[a,d]cyclohepten-5-ylidenemethyl)-phenyl]amide]
5 | > 6.30 | > 6.30 | Cc1cccc2c1OCc1ccccc1/C2=C\c1cccc(NS(C)(=O)=O)c1 [Example 674]
6 | > 5.00 | > 6.30 | Cc1cc(C)cc(C=C2c3ccccc3CCc3sccc32)c1 [Example 491]
7 | > 6.00 | > 6.30 | CS(=O)(=O)Nc1cccc(/C=C2\c3scnc3CCc3cccc(Cl)c32)c1 [Example 554]
8 | > 6.00 | > 6.30 | Oc1cccc(/C=C2\c3ccccc3CCc3cccc(Cl)c32)c1 [Example 370]
9 | > 5.00 | > 6.30 | Nc1cccc(/C=C2\c3ccc(Cl)cc3CCc3sccc32)c1 [Example 478, 3-(7-Chloro-9,10-dihydro-1-thia-benzo[f]azulen-4-ylidenemethyl)-phenylamine]
10 | > 6.00 | > 6.30 | CS(=O)(=O)Nc1cccc(C[C@H]2c3ccccc3CCc3ncccc32)c1 [Example 517]
11 | > 5.00 | > 6.30 | Cn1cnc(S(=O)(=O)Nc2ccc(C=C3c4ccccc4CCc4ccccc43)cc2)c1 [Example 143, 1-Methyl-1H-imidazole-4-sulfonic acid [4-(10,11-dihydro-dibenzo[a,d]cyclohepten-5-ylidenemethyl)-phenyl]-amide]
12 | > 6.30 | > 6.30 | CS(=O)(=O)Nc1cccc(CC2c3ccc(F)cc3CCc3ncccc32)c1 (centres unmarked) [Example 519]
13 | > 6.30 | > 6.30 | COc1ccc(S(=O)(=O)Nc2cccc(C=C3c4ccccc4CCc4cc(Cl)ccc43)c2)cc1 [Example 293]
14 | > 6.30 | > 6.30 | Cc1ccc2c(c1)CCc1cc(F)ccc1/C2=C\c1cccc(NS(C)(=O)=O)c1 [Example 421]
15 | > 6.30 | > 6.30 | CS(=O)(=O)Nc1cccc(/C=C2/c3ccc(F)cc3CCc3nc(C#N)ccc32)c1 [Example 546]
16 | > 6.30 | > 6.30 | CN(c1cccc(/C=C2/c3ccccc3COc3c(Cl)cccc32)c1)S(C)(=O)=O [Example 666]
17 | > 6.30 | > 6.30 | C(=C1c2ccccc2CCc2ccccc21)c1cn[nH]c1 [Example 439]
18 | > 6.30 | > 6.30 | CS(=O)(=O)Nc1cc(F)cc(/C=C2/c3ccc(F)cc3CCc3ncccc32)c1 [Example 525]
19 | > 6.00 | > 6.30 | O=Cc1cccc2c1CCc1ccccc1/C2=C\c1cccc(O)c1 [Example 378]
20 | > 6.30 | > 6.30 | CS(=O)(=O)Nc1cccc(/C=C2\c3ccccc3CCc3cc(F)ccc32)c1 [Example 355]

Row | pKi (glucocorticoid receptor) | pKi (human MR) | Compound
21 | > 6.30 | > 6.30 | O=S(=O)(Cc1cccc(/C=C2\c3ccccc3CSc3ccccc32)c1)c1cccc(C(F)(F)F)c1 [Example 700]
22 | > 6.30 | > 6.30 | CS(=O)(=O)Nc1cccc(/C=C2\c3ccccc3CCc3c(N)cccc32)c1 [Example 409]
23 | > 6.30 | > 6.30 | COc1cccc(C=C2c3cc(Cl)ccc3NC(=O)c3ccccc32)c1 [Example 654]
24 | > 6.00 | > 6.30 | Oc1cc(C=C2c3ccccc3CCc3ccccc32)ccc1Cl [Example 157, 2-Chloro-5-(10,11-dihydro-dibenzo[a,d]cyclohepten-5-ylidenemethyl)-phenol]
25 | > 6.30 | > 6.30 | Nc1nc2ccc(C=C3c4ccccc4CCc4ccccc43)cc2s1 [Example 442]
26 | > 6.00 | > 6.30 | O=S(=O)(Nc1cccc(C=C2c3ccccc3CCc3cc(Cl)ccc32)c1)c1ccc(Cl)cc1 [Example 290]
27 | > 6.30 | > 6.30 | Oc1cccc(/C=C2/c3ccccc3COc3cc(F)ccc32)c1 [Example 627]
28 | > 6.30 | > 6.30 | COc1cccc(C=C2c3ccccc3CNc3ccccc32)c1 [Example 650]
29 | > 6.30 | > 6.30 | CS(=O)(=O)Nc1cccc(/C=C2/c3ccccc3CCc3ncccc32)c1 [Example 251, (Z)-N-[3-(10,11-Dihydro-benzo[4,5]cyclohepta[1,2-b]pyridin-5-ylidenemethyl)-phenyl]-methanesulfonamide]
30 | > 6.30 | > 6.30 | CCC(=C1c2ccc(Cl)cc2CCc2cc(Cl)ccc21)c1cccc(NS(C)(=O)=O)c1 [Example 778]
31 | > 6.30 | > 6.30 | C/C(=C1\c2ccc(F)cc2CCc2ncccc21)c1cc(F)cc(NS(C)(=O)=O)c1 [Example 837]
32 | > 6.30 | > 6.30 | Oc1cc(F)cc(C=C2c3ccccc3CCc3ccccc32)c1 [Example 155, 3-(10,11-Dihydro-dibenzo[a,d]cyclohepten-5-ylidenemethyl)-5-fluoro-phenol]
33 | > 6.30 | > 6.30 | C/C(=C1\c2ccc(Cl)cc2COc2ccccc21)c1cccc(NS(C)(=O)=O)c1 [Example 798]
34 | > 6.30 | > 6.30 | COc1cccc2c1/C(=C/c1cccc(NS(C)(=O)=O)c1)c1ccccc1OC2 [Example 703]
35 | > 6.30 | > 6.30 | Oc1cc(C=C2c3ccccc3CCc3c(Cl)cccc32)ccc1Cl [173(a), 2-Chloro-5-(1-chloro-10,11-dihydro-dibenzo[a,d]cyclohepten-5-ylidenemethyl)-phenol]
36 | > 6.00 | > 6.30 | O=C(CO)Nc1cccc(C=C2c3ccccc3CCc3cc(Cl)ccc32)c1 [Example 300]
37 | > 6.30 | > 6.30 | COc1ccc2c(c1)CCc1cc(C)ccc1C2=C(C)c1cccc(NS(C)(=O)=O)c1 [Example 827]
38 | > 6.30 | > 6.30 | CS(=O)(=O)Nc1cccc(/C=C2\c3ccccc3CCc3ncccc32)c1 [Example 506]
39 | > 6.30 | > 6.30 | Oc1cccc(C=C2c3ccccc3CCc3ccc(F)cc32)c1 (mixture of isomers) [Example 215, 3-(3-Fluoro-10,11-dihydro-dibenzo[a,d]cyclohepten-5-ylidenemethyl)-phenol]
40 | > 6.30 | > 6.30 | O=C1Cc2c(C=C3c4ccccc4CCc4ccccc43)cccc2N1 [Example 224, 4-(10,11-Dihydro-dibenzo[a,d]cyclohepten-5-ylidenemethyl)-1,3-dihydro-indol-2-one]

Source: US20060063759A1, “Tricyclic steroid hormone nuclear receptor modulators” (priority 2002, published 2006)
